pIC50: −log10 of the molar value.
Legend:
MCF7 = assay: Antiproliferative activity against human MCF7 cells measured after 48 hrs by SRB assay; format: functional, cell-based
Bel-7402 = assay: Antiproliferative activity against human Bel-7402 cells measured after 48 hrs by SRB assay; format: functional, cell-based
HepG2 [1] = assay: Antiproliferative activity against human HepG2 cells measured after 48 hrs by SRB assay; format: functional, cell-based
[2] = Aqueous solubility of compound in water at pH 7.4 incubated at 20 degC by HPLC-UV analysis; format: physicochemical
[3] = Acute toxicity in Kunming mouse assessed as survival at 100 mg/kg, iv measured for 7 days relative to control; format: organism-based; settings: in vivo, time 7 day
[4] = Toxicity in human HepG2 cells xenografted BALB/c nude mouse assessed as change in tumor weight at 10 mg/kg, iv qod for 14 to 29 days (reference value: 4.52 g); format: organism-based; settings: in vivo, time 14-29 day
[5] = Acute toxicity in Kunming mouse assessed as survival at 50 mg/kg, iv measured for 7 days relative to control; format: organism-based; settings: in vivo, time 7 day
[6] = Acute toxicity in Kunming mouse assessed as survival at 75 mg/kg, iv measured for 7 days relative to control; format: organism-based; settings: in vivo, time 7 day
HepG2 [7] = assay: Antitumor activity against human HepG2 cells xenografted in BALB/c nude mouse assessed as tumor volume at 10 mg/kg, iv qod for 14 to 29 days measured on day 1 (reference value: 154.04 +/- 3120); format: functional; settings: time 14-29 day
HepG2 [8] = assay: Antitumor activity against human HepG2 cells xenografted in BALB/c nude mouse assessed as tumor volume at 10 mg/kg, iv qod for 14 to 29 days measured on day 29 (reference value: 2,838.93 +/- 737.40); format: functional; settings: time 14-29 day
[9] = Acute toxicity in Kunming mouse assessed as survival at 25 mg/kg, iv measured for 7 days relative to control; format: organism-based; settings: in vivo, time 7 day
[10] = Acute toxicity in iv dosed Kunming mouse measured for 7 days; format: organism-based; settings: in vivo, time 7 day
HepG2 [11] = assay: Antitumor activity against human HepG2 cells xenografted in BALB/c nude mouse assessed as tumor growth inhibition at 10 mg/kg, iv qod for 14 to 29 days relative to control; format: functional; settings: time 14-29 day, read-out: TGI
[12] = Acute toxicity in Kunming mouse assessed as survival at 200 mg/kg, iv measured for 7 days relative to control; format: organism-based; settings: in vivo, time 7 day
HepG2 [13] = assay: Antitumor activity against human HepG2 cells xenografted in BALB/c nude mouse assessed as tumor growth inhibition at 50 mg/kg, iv qod for 14 to 29 days relative to control; format: functional; settings: time 14-29 day, read-out: TGI
HepG2 [14] = assay: Antitumor activity against human HepG2 cells xenografted in iv dosed BALB/c nude mouse assessed as tumor growth inhibition administered every other day for 14 to 29 days; format: functional, organism-based; settings: time 14-29 day
[15] = Toxicity in human MDA-MB-231 cells xenografted BALB/c nude mouse assessed as effect on body weight at 60 mg/kg, ip qod for 14 to 29 days measured every two days during compound dosing; format: organism-based; settings: in vivo, time 14-29 day
MDA-MB-231 = assay: Antitumor activity against human MDA-MB-231 cells xenografted in BALB/c nude mouse assessed as reduction in tumor burden at 60 mg/kg, ip qod for 14 to 29 days relative to control; format: functional; design: scale not given: the % may be the effect or the level left; settings: time 14-29 day
HepG2 [16] = assay: Antitumor activity against human HepG2 cells xenografted in BALB/c nude mouse assessed as reduction in tumor volume administered for 29 days by caliper method; format: functional, cell-based; settings: time 29.0 day

| Compound | pIC50 (MCF7; Homo sapiens, MCF7, 48 h) | pIC50 (Bel-7402; Homo sapiens, Bel-7402, 48 h) | pIC50 (HepG2 [1]; Homo sapiens, HepG2, 48 h) | solubility [2] [mg/mL] | other results |
| --- | --- | --- | --- | --- | --- |
| COc1ccc(N(CCCn2ccnc2)S(=O)(=O)c2ccc3c(c2)c2ccccc2n3C)c(OC)n1 | 5.34 | 5.33 | 5.86 |  |  |
| COc1ccc(N(CCCn2ccnc2)S(=O)(=O)c2ccc3c(c2)c2ccccc2n3C)c(OC)n1.Cl |  |  |  | 18.4 |  |
| COc1ccc(N(CCN(C)C)S(=O)(=O)c2ccc3c(c2)c2ccccc2n3C)c(OC)n1 | 5.27 | 5.27 | 5.84 |  | survival at 168 h [3]: 0%; Activity [4]: 0.87 g; survival at 168 h [5]: 83.3%; survival at 168 h [6]: 66.7%; Activity (HepG2 [7]): 90.79 mm3; Activity (HepG2 [8]): 1322.82 mm3; survival at 168 h [9]: 100%; LD50 at 168 h [10]: 71.9 mg/kg; inhibition in vivo at 10 mg/kg (HepG2 [11]): 52.8% |
| COc1ccc(N(CCCN2CCN(C)CC2)S(=O)(=O)c2ccc3c(c2)c2ccccc2n3C)c(OC)n1 | 4.68 | 4.93 | 5.25 |  |  |
| COc1ccc(N(CCCN2CCC3(CCN(C)CC3)C2)S(=O)(=O)c2ccc3c(c2)c2ccccc2n3C)c(OC)n1 | 4.67 | 5.21 | 5.44 |  |  |
| COc1ccc(N(CCN2CCSCC2)S(=O)(=O)c2ccc3c(c2)c2ccccc2n3C)c(OC)n1 | 5.34 | 5.39 | 5.87 |  |  |
| COc1ccc(N(CCOC(N)=O)S(=O)(=O)c2ccc3c(c2)c2ccccc2n3C)c(OC)n1.Cl |  |  |  | 0.47 |  |
| COc1ccc(N(CCN2CCCCC2)S(=O)(=O)c2ccc3c(c2)c2ccccc2n3C)c(OC)n1.Cl |  |  |  | 0.58 |  |
| COc1ccc(N(CCN)S(=O)(=O)c2ccc3c(c2)c2ccccc2n3C)c(OC)n1.Cl |  |  |  | 0.24 |  |
| COc1ccc(N(CCN2CCC(N3CCCC3)CC2)S(=O)(=O)c2ccc3c(c2)c2ccccc2n3C)c(OC)n1 | 4.68 | 5.11 | 5.47 |  | survival at 168 h [3]: 16.7%; Activity [4]: 1.72 g; survival at 168 h [5]: 83.3%; survival at 168 h [12]: 0%; Activity (HepG2 [7]): 85.64 mm3; Activity (HepG2 [8]): 1237.34 mm3; survival at 168 h [9]: 100%; LD50 at 168 h [10]: 70.7 mg/kg; inhibition in vivo at 10 mg/kg (HepG2 [11]): 51.5% |
| COc1ccc(N(CCN)S(=O)(=O)c2ccc3c(c2)c2ccccc2n3C)c(OC)n1 | 5.18 | 5.36 | 5.32 |  |  |
| COc1ccc(N(CCN2CCC3(CCN(C)CC3)C2)S(=O)(=O)c2ccc3c(c2)c2ccccc2n3C)c(OC)n1 | 4.84 | 5.37 | 5.55 |  |  |
| COc1ccc(N(C(=O)CCN2CCN(C)CC2)S(=O)(=O)c2ccc3c(c2)c2ccccc2n3C)c(OC)n1.Cl |  |  |  | 17.6 |  |
| COc1ccc(N(CCO)S(=O)(=O)c2ccc3c(c2)c2ccccc2n3C)c(OC)n1 | 5.84 | 5.38 | 5.39 |  |  |
| COc1ccc(N(CC(N)=O)S(=O)(=O)c2ccc3c(c2)c2ccccc2n3C)c(OC)n1 | 5.37 | 5.45 | 5.71 |  |  |
| COc1ccc(N(CCN2CCSCC2)S(=O)(=O)c2ccc3c(c2)c2ccccc2n3C)c(OC)n1.Cl |  |  |  | 0.27 |  |
| COc1ccc(N(CCN2CCCC2)S(=O)(=O)c2ccc3c(c2)c2ccccc2n3C)c(OC)n1 | 5.24 | 5.30 | 5.50 |  |  |
| COc1ccc(N(CCCN2CCC(N3CCCC3)CC2)S(=O)(=O)c2ccc3c(c2)c2ccccc2n3C)c(OC)n1.Cl |  |  |  | > 30 |  |
| COc1ccc(N(CCN2CCN(C)CC2)S(=O)(=O)c2ccc3c(c2)c2ccccc2n3C)c(OC)n1.Cl |  |  |  | 25.7 |  |
| COc1ccc(N(CCOC(=O)CN2CCN(C)CC2)S(=O)(=O)c2ccc3c(c2)c2ccccc2n3C)c(OC)n1.Cl |  |  |  | > 30 |  |
| COc1ccc(N(CCCN2CCC(N3CCCC3)CC2)S(=O)(=O)c2ccc3c(c2)c2ccccc2n3C)c(OC)n1 | 4.80 | 5.20 | 5.41 |  |  |
| COc1ccc(N(CC(N)=O)S(=O)(=O)c2ccc3c(c2)c2ccccc2n3C)c(OC)n1.Cl |  |  |  | 0.02 |  |
| COc1ccc(N(CCCN(C)C)S(=O)(=O)c2ccc3c(c2)c2ccccc2n3C)c(OC)n1.Cl |  |  |  | 20.5 |  |
| COc1ccc(N(CCn2ccnc2)S(=O)(=O)c2ccc3c(c2)c2ccccc2n3C)c(OC)n1 | 5.34 | 5.59 | 5.90 |  |  |
| COc1ccc(/C=C\c2cc(OC)c(OC)c(OC)c2)cc1OP(=O)(O)O [FOSBRETABULIN DISODIUM] | 7.96 | 7.40 | 8.70 |  | inhibition in vivo at 50 mg/kg (HepG2 [13]): 45.8% |
| COc1ccc(NS(=O)(=O)c2ccc3c(c2)c2ccc(OP(=O)([O-])[O-])cc2n3C)c(OC)n1.Cl.[Na+].[Na+] |  |  |  | > 30 |  |
| COc1ccc(N(C(=O)CCN2CCN(C)CC2)S(=O)(=O)c2ccc3c(c2)c2ccccc2n3C)c(OC)n1 | 6.77 | 6.70 | 7.15 |  |  |

| Compound | pIC50 (MCF7; Homo sapiens, MCF7, 48 h) | pIC50 (Bel-7402; Homo sapiens, Bel-7402, 48 h) | pIC50 (HepG2 [1]; Homo sapiens, HepG2, 48 h) | solubility [2] [mg/mL] | other results |
| --- | --- | --- | --- | --- | --- |
| COc1ccc(N(CCO)S(=O)(=O)c2ccc3c(c2)c2ccccc2n3C)c(OC)n1.Cl |  |  |  | 0.15 |  |
| COc1ccc(N(CCOP(=O)(O)O)S(=O)(=O)c2ccc3c(c2)c2ccccc2n3C)c(OC)n1.Cl |  |  |  | 1.75 |  |
| COc1ccc(N(CCOP(=O)([O-])[O-])S(=O)(=O)c2ccc3c(c2)c2ccccc2n3C)c(OC)n1.Cl.[Na+].[Na+] |  |  |  | 22.4 |  |
| COc1ccc(N(CCCN2CCN(C)CC2)S(=O)(=O)c2ccc3c(c2)c2ccccc2n3C)c(OC)n1.Cl |  |  |  | 20.6 |  |
| COc1ccc(N(CCN2CCOCC2)S(=O)(=O)c2ccc3c(c2)c2ccccc2n3C)c(OC)n1.Cl |  |  |  | 0.44 |  |
| COc1ccc(N(CCNC(=O)CN)S(=O)(=O)c2ccc3c(c2)c2ccccc2n3C)c(OC)n1.Cl.Cl |  |  |  | > 30 |  |
| COc1ccc(N(CCn2ccnc2)S(=O)(=O)c2ccc3c(c2)c2ccccc2n3C)c(OC)n1.Cl |  |  |  | 21.5 |  |
| COc1ccc(NS(=O)(=O)c2ccc3c(c2)c2ccc(O)cc2n3C)c(OC)n1.Cl |  |  |  | 0.0015 |  |
| COc1ccc(N(CCN2CCCC2)S(=O)(=O)c2ccc3c(c2)c2ccccc2n3C)c(OC)n1.Cl |  |  |  | 0.6 |  |
| COc1ccc(N(CCOC(N)=O)S(=O)(=O)c2ccc3c(c2)c2ccccc2n3C)c(OC)n1 |  | < 4.60 | 5.29 |  |  |
| COc1ccc(N(CCN2CCN(C)CC2)S(=O)(=O)c2ccc3c(c2)c2ccccc2n3C)c(OC)n1 |  |  |  |  | TGI (HepG2 [14]): Dose-dependent effect |
| COc1ccc(N(CCOC(=O)CN2CCN(C)CC2)S(=O)(=O)c2ccc3c(c2)c2ccccc2n3C)c(OC)n1 | 5.22 | 5.31 | 5.37 |  |  |
| COc1ccc(N(CCCN(C)C)S(=O)(=O)c2ccc3c(c2)c2ccccc2n3C)c(OC)n1 | 5.15 | 4.96 | 5.56 |  |  |
| COc1ccc(N(CCOP(=O)(O)O)S(=O)(=O)c2ccc3c(c2)c2ccccc2n3C)c(OC)n1 [listing 1 of 2 here] |  |  |  |  | pIC50 (MCF7; mcf7): 6.00; pIC50 (Bel-7402; bel-7402): 5.94; pIC50 (HepG2 [1]; hepg2): 6.13 |
| COc1ccc(N(C(=O)CCN2CCCCC2)S(=O)(=O)c2ccc3c(c2)c2ccccc2n3C)c(OC)n1 | 5.94 | 6.14 | 6.46 |  | Activity [15]: Non-Toxic; Activity (MDA-MB-231): 40.1% |
| COc1ccc(N(CCCN2CCC3(CCN(C)CC3)C2)S(=O)(=O)c2ccc3c(c2)c2ccccc2n3C)c(OC)n1.Cl |  |  |  | > 30 |  |
| COc1ccc(/C=C\c2cc(OC)c(OC)c(OC)c2)cc1O [COMBRETASTATIN A4] | 8.52 | 7.08 | 8.70 |  |  |
| COc1ccc(N(CCN2CCC3(CCN(C)CC3)C2)S(=O)(=O)c2ccc3c(c2)c2ccccc2n3C)c(OC)n1.Cl |  |  |  | > 30 |  |
| COc1ccc(N(CCN2CCOCC2)S(=O)(=O)c2ccc3c(c2)c2ccccc2n3C)c(OC)n1 | 5.33 | 5.57 | 5.97 |  |  |
| COc1ccc(N(CCN2CCC(N3CCCC3)CC2)S(=O)(=O)c2ccc3c(c2)c2ccccc2n3C)c(OC)n1.Cl |  |  |  | > 30 |  |
| COc1ccc(NS(=O)(=O)c2ccc3c(c2)c2ccccc2n3C)c(OC)n1 | 6.17 |  | 7.02 | < 0.001 |  |
| COc1ccc(N(CCN(C)C)S(=O)(=O)c2ccc3c(c2)c2ccccc2n3C)c(OC)n1.Cl |  |  |  | 29.1 |  |
| COc1ccc(N(C(=O)CCN2CCCCC2)S(=O)(=O)c2ccc3c(c2)c2ccccc2n3C)c(OC)n1.Cl |  |  |  | 18.6 |  |
| COc1ccc(N(CCN2CCCCC2)S(=O)(=O)c2ccc3c(c2)c2ccccc2n3C)c(OC)n1 | 5.24 | 5.30 | 5.69 |  |  |
| COc1ccc(N(CCOP(=O)(O)O)S(=O)(=O)c2ccc3c(c2)c2ccccc2n3C)c(OC)n1 [listing 2 of 2 here] |  |  |  |  | Activity (HepG2 [16]): Dose-dependent effect |
| COc1ccc(N(CCNC(=O)CN)S(=O)(=O)c2ccc3c(c2)c2ccccc2n3C)c(OC)n1 | 5.80 | 5.66 | 5.90 |  |  |
